Active and inactive are the calls of the source. No rule for the calls is given here.
Assay: mitochondrial fusion inhibitors, confirmation, cell-based, chemical genetic, wild-type and mutant (AID 1361)
Conditions: Cell-based mitochondrial fusion phenotype, imaging
[1] = mutant cells, measured here: mutant cell line IC50

Compound	IC50 (WT cells)	IC50 [1] [µM]
COc1ccc(N2CCN(CCNC(=O)c3nnc(Cc4c(F)cccc4Cl)o3)CC2)cc1	> 25 µM (inactive)	> 25
Cc1ccc(S(=O)(=O)c2nc(Nc3ccccc3)sc2Cl)cc1	14.1 µM	> 25
CCOC(=O)C1CCN(S(=O)(=O)c2c(C)n[nH]c2C)CC1	> 25 µM (inactive)	> 25
NC(=O)c1ccc(N2CCCCC2)c(N2C(=O)C3CC=CCC3C2=O)c1 (stereo unspecified)	> 25 µM (inactive)	> 25
CC(Sc1ccc(Cl)cc1)C(=O)Nc1ccccc1-c1ccccc1 (stereo unspecified)	13 µM	> 25
O=S(Cc1ccc(Br)cc1)Cc1nnc(SCc2c(F)cccc2Cl)n1-c1ccccc1 (stereo unspecified)	> 25 µM (inactive)	> 25
Cc1ccc(OCCSc2nc(NC(C)C)nc(NC(C)C)n2)cc1	12.3 µM	> 25
O=C(CCCCCN1C(=O)c2ccccc2C1=O)Nc1ccc(S(=O)(=O)N2CCCCC2)cc1	> 25 µM (inactive)	> 12.5
CC1(C)C(=O)OC(c2cccn2-c2cccc([N+](=O)[O-])c2)C2(CCCCC2)C1=O (stereo unspecified)	9.07 µM	11.1
Cc1ccccc1/C(N)=N/OC(=O)N1c2ccccc2Sc2ccccc21	16.6 µM	22
COc1ccc(OCCC(=O)N2CCCCC2)cc1	> 25 µM (inactive)	> 25
Cc1ccc(C(=O)Nc2cc(Cl)ccc2N2CCCCC2)s1	7.64 µM	> 25
COc1ccc(-c2nnc(SCc3cc(C)cc(C)c3)o2)cc1	12.9 µM	> 25
COc1ccc(NS(=O)(=O)c2ccc3oc(Nc4ccc5c(c4)OCCO5)nc3c2)cc1	17.6 µM	> 25
CCCc1c(C)[nH]c2ccc(NC(C)=O)cc2c1=O	> 25 µM (inactive)	> 25
COCCCn1c(SCC(=O)NC(C)(C)C)nnc1-c1ccccc1	> 25 µM (inactive)	> 25
CCOC(=O)c1sc(NC(=O)Nc2cccc(Cl)c2)cc1C	11.8 µM	> 25
CCOC(=O)N1CCN(C(=O)CN(C)S(=O)(=O)c2ccc3c(c2)C(C)(C)C(=O)N3C)CC1	> 25 µM (inactive)	> 25
O=C(c1csc(Nc2ccccc2Cl)n1)N1CCCC1	> 25 µM (inactive)	> 25
Cc1cc(Oc2ccc(C(C)(C)C)cc2)nc(N2CCOCC2)n1	19.9 µM	> 25

Compound	IC50 (WT cells)	IC50 [1] [µM]
CN(C)S(=O)(=O)c1cccc(C(=O)NCC2CCCO2)c1 (stereo unspecified)	> 25 µM (inactive)	> 25
COc1cccc(C2Nc3c(F)cc(Br)cc3C3C=CCC32)c1OC (stereo unspecified)	14.9 µM	> 25
COc1ccc(C(=O)Nc2ccc(Cl)cc2C(=O)NCCN2CCOCC2)cc1	> 25 µM (inactive)	> 25
COC(=O)C1CN(C#N)N(c2ccc(Cl)cc2)C12c1ccccc1-c1ccccc12 (stereo unspecified)	2.48 µM	> 25
CCOc1ccccc1NC(=O)C(NCC1CCCCC1)c1ccccc1 (stereo unspecified)	14.3 µM	> 25
N#Cc1ccccc1Sc1ccccc1C(=O)Nc1ccc(Br)cc1	> 25 µM (inactive)	> 25
CCN(Cc1ccccc1)c1ccc(/C=N/NC(=S)NC(C)C)cc1	5.04 µM	> 25
CCc1ccccc1NC(=S)N=Nc1c(O)n(C)c2ccc(S(=O)(=O)N3CCOCC3)cc12	1.37 µM	9.5
COC(=O)[C@@H]1CC[C@H](C)[C@@H](c2ccc(C)cc2)N1C(=O)c1ccc(/C=N/O[C@@H](C)CN2CCCCc3nc(C)c(C)cc32)cc1	6.19 µM	> 25
Cc1ccc(NC(=S)N(Cc2ccc(Br)cc2)Cc2ccc(C(=O)O)cc2)cc1C	> 25 µM (inactive)	> 25
CCN(CC)P(=O)(Nc1ccc(C)cc1Br)c1ccc(N(C)C)cc1NC(=O)c1ccco1 (stereo unspecified)	12.8 µM	> 25
O=c1c2ccccc2nc2n1C1(CCCCC1)Cc1ccccc1-2	23.4 µM	> 25
O=C(OC(C(=O)Nc1cccc(C(F)(F)F)c1)c1ccccc1)C1CCCCC1 (stereo unspecified)	9.59 µM	> 25
Cc1cc(Cl)ccc1NC(=S)NCCC(c1ccccc1)c1ccccc1	4.91 µM	> 25
O=C(NCc1nnc(SCc2ccc(C(F)(F)F)cc2)n1-c1ccccc1)C12CC3CC(CC(C3)C1)C2	18 µM	> 25
CC1CCCN(c2nc(-c3cccnc3)nc3scc(-c4ccccc4)c23)C1 (stereo unspecified)	11.8 µM	> 25
CCCCOC(=O)Nc1cccc(C(=O)OCC)c1	> 25 µM (inactive)	> 25
Cc1ccc2nc(NCCCNC(=O)c3cnccn3)c(C#N)cc2c1	> 25 µM (inactive)	> 25
COC(=O)C1=CN(CCOC23CC4CC(CC(C4)C2)C3)C=C(C(=O)OC)C1c1ccsc1	17 µM	> 25
Cc1nnc(NC(=O)c2sc3nc(-c4cccs4)cc(C(F)(F)F)c3c2N)s1	> 25 µM (inactive)	> 25

Compound	IC50 (WT cells)	IC50 [1] [µM]
CCOC(=O)c1c(NC(=O)OC)sc(C(=O)N(C)C)c1C	> 25 µM (inactive)	> 25
Cc1nn(Cc2ccccc2Cl)c(C)c1NC(=O)NC12CC3CC(CC(C3)C1)C2	> 25 µM (inactive)	> 25
COc1ccc(Br)cc1CN(C)CC(=O)Nc1ccccc1Cl	19.8 µM	> 25
O=c1[nH][nH]c(-c2ccccc2)c1C=Nc1ccccc1	> 25 µM (inactive)	> 25
Cc1cc(CC(C)C)n(-c2nc3ccccc3c(=O)n2OCc2ccccc2)n1	> 25 µM (inactive)	> 25
CCN(Cc1cc2cc(C)ccc2[nH]c1=O)C(=O)c1cccc(OC)c1	> 25 µM (inactive)	> 25
CSc1ccc(OC2CCCCC2NS(=O)(=O)c2ccc(Cl)cc2)cc1 (stereo unspecified)	16.2 µM	> 25
Cc1ccc(O)c(-c2cc(-c3ccccc3[N+](=O)[O-])[nH]n2)c1	> 25 µM (inactive)	> 25
Cc1nn(-c2ccccc2)c(C)c1C(=O)OCC(=O)N1CCN(S(=O)(=O)c2ccccc2)CC1	> 25 µM (inactive)	> 25
Cc1oc(-c2ccccc2)nc1CN1C(=O)C(C)N=C(c2ccccc2F)c2cc(Cl)ccc21 (stereo unspecified)	12.4 µM	> 25
CCOc1ccccc1-n1c(CN2CCN(C(=O)c3ccco3)CC2)nc2ccccc2c1=O	> 25 µM (inactive)	> 25
c1ccc(-c2[nH]c(-c3ccccc3)[n+](CC3CO3)c2-c2ccccc2)cc1 (stereo unspecified)	18.8 µM	> 25
COc1cccc(-c2nc(-c3ccccn3)no2)c1	> 25 µM (inactive)	> 25
Cc1nn(CCC(N)=S)c2nc(-c3cccs3)cc(C(F)(F)F)c12	18.9 µM	> 25
CCCn1c(N2CCC(Cc3ccccc3)CC2)nc2c1c(=O)[nH]c(=O)n2C	> 25 µM (inactive)	> 25
O=C(c1cc(Cl)cc(Cl)c1)N1CCC(=O)N(C(COCc2ccccc2)Cc2ccccc2)CC1 (stereo unspecified)	> 25 µM (inactive)	> 25
Cn1c(=O)n(C)c2cc([N+](=O)[O-])c(N3CCN(S(=O)(=O)c4ccc(C(C)(C)C)cc4)CC3)cc21	5.99 µM	> 25
CCCn1nnc(NC(=O)c2ccc(-c3cccc(Cl)c3)o2)n1	> 25 µM (inactive)	> 25
